Laboratory results reported in patent publication US8802240B2, “Uses of formulations of thyroid hormone analogs and nanoparticulate forms thereof to increase chemosensitivity and radiosensitivity in tumor or cancer cells” (Nanopharmaceuticals LLC, priority 2011, dated 2014).
“Also recorded” adds a separate entry of the source. Read-outs that look alike come from different tables or passages of the source. Blank lines part the entries; values can stand above or below the molecule they belong to.

How the values were obtained:
ERK1/2 = test: MAPK activation in ECV304 cells (immunoblot of nuclear phosphorylated ERK1/2); format: cell-based; conditions: for effect on T4-induced ERK1/2 activation (in words): PD 98059 30 μmol/L or CGP41251 100 nmol/L for 30 minutes, then 10^−7 M T4 for 15 minutes
Procedure: ECV304 endothelial cells were cultured in M199 medium with 0.25% hormone-depleted serum 13 for 2 days. […] Nuclear fractions were prepared from all samples by the method reported previously (see Li et al., Carcinogenesis 29:62-69 (2008)), the proteins separated by polyacrylamide gel electrophoresis, and transferred to membranes for immunoblotting with antibody to phosphorylated ERK 1/2.

V-79 cells = conditions: cited from earlier work
ECV304 endothelial cells = test: FGF2 release from ECV304 endothelial cells (ELISA); format: cell-based
Procedure: ECV304 endothelial cells were cultured in M199 medium supplemented with 10% fetal bovine serum. […] After 72 hours, the supernatants were harvested and assays for FGF performed without dilution using a commercial ELISA system (R&D Systems) (See Davis et al., Circ Res 94:1500-1506 (2004)).

[1] = system: chick chorioallantoic membrane (CAM) blood vessel branch points; test: Chick chorioallantoic membrane (CAM) model of angiogenesis; format: in vivo; conditions: for generation of new blood vessels from existing vessels promoted: 10^−7-10^−9 M
Procedure: In vivo neovascularization was examined by methods described previously. 9-12 Ten-day-old chick embryos were purchased from SPAFAS (Preston, Conn.) and incubated at 37° C. with 55% relative humidity. A hypodermic needle was used to make a small hole in the shell concealing the air sac, and a second hole was made on the broad side of the egg, directly over an avascular portion of the embryonic membrane that was identified by candling. A false air sac was created beneath the second hole by the application of negative pressure at the first hole, causing the CAM to separate from the shell. […] Thyroid hormone, hormone analogs, FGF2 or control solvents, and inhibitors were then applied to the disks and the disks allowed to dry. The disks were then suspended in PBS and placed on growing CAMs. […] At 24 hours, the MAPK cascade inhibitor PD 98059 was also added to CAMs topically by means of the filter disks. […] The number of vessel branch points contained in a circular region equal to the area of each filter disk were counted. […] In addition, each experiment was performed 3 times. The resulting angiogenesis index is the mean±SEM of new branch points.

pKa of functional groups = format: physicochemical; conditions: estimated
FGF2 cDNA = test: RT-PCR of FGF2 in ECV304 cells; format: cell-based; conditions: T4 10^−7 mol/L, apparent by 6 hours, further enhanced by 48 hours
Procedure: RNA (1 μg) was subjected to reverse transcription-polymerase chain reaction (RT-PCR) using the Access RT-PCR system (Promega). Total RNA was reverse transcribed into cDNA at 48° C. for 45 minutes, then denatured at 94° C. for 2 minutes. Second-strand synthesis and PCR amplification were performed for 40 cycles with denaturation at 94° C. for 30 s, annealing at 60° C. for 60 s, and extension at 68° C. for 120 s, with final ex-tension for 7 minutes at 68° C. after completion of all cycles. PCR primers for FGF2 were as follows: FGF2 sense strand 5′-[…]-3′ (SEQ ID NO:1), antisense strand 5′ […]-3′ (SEQ ID NO:2); the length of the PCR product was 734 bp. Primers for GAPDH included the sense strand 5′-[…]-3′ (SEQ ID NO:3), and antisense strand 5′-[…]-3′ (SEQ ID NO:4); the length of the PCR product was 218 bp. […] The target bands of the gel were quantified using LabImage software (Kapelan), and the value for [FGF2/GAPDH]X10 calculated for each time point.

SF763 glioblastoma cells = conditions: 85 μM, 16 hours at 37° C., cited from earlier work
Morris 7800 hepatoma = conditions: PTU 0.1%; cited from earlier work
[2] = system: transplantable liver tumor; conditions: cited from earlier work
[3] = system: glioblastoma (GBM) patients; conditions: induction of mild hypothyroidism; cited from earlier work
[4] = system: matrigel plug angiogenesis; test: Mouse matrigel model of angiogenesis (plug hemoglobin); format: in vivo, mice (C57BL/6NCr); conditions: numbers are Tetrac analogs of Example 13; for Mean inhibition of angiogenesis (%) / Hemoglobin (mg/mL) ± SEM: FGF 100 ng + test substance 10 μg/plug; for Hemoglobin (mg/mL) ± SEM: n = 7-14
Procedure: Normal male mice (C57BL/6NCr) 6-8 weeks of age and weighing ˜20 g were purchased from Taconic farm. Animals were housed 4 per cage, in controlled conditions of temperature (20-24° C.); humidity (60-70%) and 12 hrs. light/dark cycle provided with food and water ad libitum. […] Aliquots of matrigel were placed into cold polypropylene tubes to prevent the matrigel from solidifying and the angiogenesis promoter added to matrigel with or without agonist. Mice were treated daily. Matrigel was subcutaneously injected as triple injection per animal at 100 μL/animal. At day 14 post plug implant all animals were killed in CO2 chamber and matrigel plugs were collected. Plug hemoglobin content was analyzed from three implants/mice (n=6 per group) to measure angiogenesis.
The matrigel plugs dissected from the mice were carefully stripped of any remaining peritoneum. The plugs were placed into 0.5 mL tube of ddH2O and homogenized for 5-10 min. […] Absorbance was read with a Microplate Manager ELISA reader at 540 nm. […] Hemoglobin concentration is a reflection of the number of blood vessels in the plugs.

M21 melanoma cells = conditions: 20 ug/ml; doses of 0, 5, and 10 Gy; cited from earlier work

Molecule: CO[C@@H]1[C@H](N(C)C(=O)c2ccccc2)C[C@H]2O[C@]1(C)n1c3ccccc3c3c4c(c5c6ccccc6n2c5c31)C(=O)NC4 [CGP41251]
effect on T4-induced ERK1/2 activation (in words) (ERK1/2): blocked

Molecule: NC(=O)c1cccc(N)c1 [Compound 3AB, 3-aminobenzamide]
inhibition of PLDR (V-79 cells; Thraves et al.): ~70%
Dq value (V-79 cells; with 3AB, without 3.4): 1 Gy

Molecule: N[C@@H](Cc1cc(I)c(Oc2ccc(O)c(I)c2)c(I)c1)C(=O)O [Compound T3, 3,5,3′-triiodo-L-thyronine]
FGF2 (pg/mL/10^6 cells) (ECV304 endothelial cells; T3 (0.01 μmol/L), 3 days, Control 27.7 ± 3.1): 98.8 ± 0.5 pg/mL/10^6 cells
increase in blood vessel branch formation ([1]; 1 nmol/L (1 nM) for 3 days, vs PBS): 2 fold
generation of new blood vessels from existing vessels promoted [1]: two- to three-fold

pKa (pKa of functional groups; read-out: pKa of the COOH (carboxylic acid) group): ~2
pKa (pKa of functional groups; read-out: pKa of the NH2 (amino) group): ~9
Molecule: N[C@@H](Cc1cc(I)c(Oc2cc(I)c(O)c(I)c2)c(I)c1)C(=O)O [Compound T4, L-thyroxine]
abundance of FGF2 cDNA, corrected for GAPDH content (in words) (FGF2 cDNA): increase in abundance of FGF2 cDNA
appearance of phosphorylated ERK1/2 in cell nuclei (ERK1/2; T4 10^−7 mol/L): ≤ 15 min
time of maximal level of nuclear phosphorylated ERK1/2 (ERK1/2; T4 10^−7 mol/L): 30 min
effect on MAPK activation caused by FGF2 (in words) (ERK1/2; T4 10^−7 mol/L + FGF2 10 ng/mL, 15-minute co incubation): enhanced the MAPK activation caused by FGF2
generation of new blood vessels from existing vessels promoted [1]: two- to three-fold
effect on the angiogenic effect of sub-maximal FGF2 (in words) ([1]; T4 0.05 μmol/L + FGF2 0.5 μg/mL): enhanced

Molecule: CC(C)[C@H]1C(=O)N[C@@H](CCCN=C(N)N)C(=O)NCC(=O)N[C@@H](CC(=O)O)C(=O)N[C@H](Cc2ccccc2)C(=O)N1C [EMD121974]
increase of α (SF763 glioblastoma cells): 4.4 fold
α component in the LQ survival equation (SF763 glioblastoma cells; without approximately 0.04): ~0.18 Gy^−1

Molecule: COc1cccc(-c2cc(=O)c3ccccc3o2)c1N [PD 98059]
FGF2 (pg/mL/10^6 cells) (ECV304 endothelial cells; T3 + PD 98059 (2 μmol/L)): 28.4 ± 3.2 pg/mL/10^6 cells
FGF2 (pg/mL/10^6 cells) (ECV304 endothelial cells; T3 + PD 98059 (20 μmol/L)): 21.7 ± 3.5 pg/mL/10^6 cells
FGF2 (pg/mL/10^6 cells) (ECV304 endothelial cells; T4 + PD 98059 (2 μmol/L)): 26.5 ± 4.5 pg/mL/10^6 cells
FGF2 (pg/mL/10^6 cells) (ECV304 endothelial cells; T4 + PD 98059 (20 μmol/L)): 23.2 ± 4.8 pg/mL/10^6 cells
effect on T4-induced ERK1/2 activation (in words) (ERK1/2): inhibited
effect on angiogenesis stimulated by T4 and T3 together (in words) ([1]; PD 98059 3 μmol/L, T4 0.1 μmol/L and T3 1 nmol/L): completely blocked; also recorded: fully inhibited
effect on FGF2 stimulation of branch formation (in words) ([1]; PD 98059, FGF2 1 μg/mL): effectively blocked

Molecule: CCCc1cc(=O)[nH]c(=S)[nH]1 [PTU, 6-N-propyl-2-thiouracil]
increase in survival (Morris 7800 hepatoma): approximately 1.3 fold
time needed to grow from approximately 270 mm^3 to 900 mm^3 ([2]; 10 Gy of x-rays plus 0.05% PTU in the drinking water, control 6.2, x-rays alone 11.2): 17.8 days
growth rate with PTU alone (in words) ([2]; in vivo): no difference in growth rate from control neoplasms
improvement of the duration of survival [3]: 3 fold
effect of the presence of PTU on the effect of T4 (in words) ([1]; filter disks pretreated with 1 mmol/L PTU): did not reduce the effect of T4

Molecule: CC(C)[Si](OC(=O)Cc1cc(I)c(Oc2cc(I)c(O)c(I)c2)c(I)c1)(C(C)C)C(C)C [Tetrac analog 5, Triisopropylsilyl-2-(4-(4-hydroxy-3,5-diiodophenoxy)-3,5-diiodophenyl)acetate]
melting point: 146 °C
Mean inhibition of angiogenesis (%) [4]: 104 ± 14%
Hemoglobin (mg/mL) ± SEM [4]: 0.2 ± 0.1 mg/mL
inhibition of FGF-induced angiogenesis (in words) [4]: strong
Mean % Inhibition ([1]; FGF (1.25 μg/ml) + test substance, 10 μg/plug per footnote, numbers are Tetrac analogs of Example 13): 75 ± 19%
Mean Branch points ([1]; FGF (1.25 μg/ml) + test substance, 10 μg/plug per footnote, numbers are Tetrac analogs of Example 13, n = 8, PBS 73 ± 6, FGF 130 ± 11): 87 ± 11

Molecule: O=C(Cc1cc(I)c(Oc2cc(I)c(OCC3CO3)c(I)c2)c(I)c1)NC1CCCCC1 (stereo not shown) [Tetrac analog 6, N-cyclohexyl-2-(4-(3,5-diiodo-4-(oxiran-2-ylmethoxy)phenoxy)-3,5-diiodophenyl)acetamide]
melting point: 242 °C
Mean inhibition of angiogenesis (%) [4]: 80 ± 16%
Hemoglobin (mg/mL) ± SEM [4]: 0.7 ± 0.1 mg/mL
inhibition of FGF-induced angiogenesis (in words) [4]: strong
inhibition of angiogenesis in the CAM assay (in words) ([1]; numbers are Tetrac analogs of Example 13): not as strong as compounds 3, 5, 7, and 9

Molecule: CNTO 95: human anti-αv integrin monoclonal antibody
increase in sensitivity (in vitro apoptosis) by a factor of (M21 melanoma cells): 2 fold
